pIC50: −log10 of the molar value.
How the values were obtained:
[1] = target: IL-17A(FLAG-Tagged): IL-17RA(His-Tagged) (Homo sapiens, UniProt Q16552, K93Q); assay: IL-17A(FLAG-Tagged): IL-17RA(His-Tagged) Binding Disruption Eu-HTRF Assay, Protocol 1; conditions: Protocol 1, FLAG tagged IL-17A 2.5 nM; simple average if tested more than once
In short: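 IC50 came from a one-site competition fit of the acceptor/donor (665/620 nm) HTRF ratio. His-tagged IL-17RA, Eu-anti-FLAG and D2-anti-His were added after a 1 h rt compound preincubation with FLAG-tagged IL-17A dimer in PBS/0.01% Triton X-100, followed by 2 h at rt before reading.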

[2] = tested on: IL-17A-induced G-CSF production in human normal keratinocyte (NHK); assay: NHK Assay: IL-17A-induced G-CSF production in human normal keratinocyte; assay type: cell-based; conditions: Homo sapiens, Keratinocyte, 24 h, IL-17A 5 ng/mL, simple average if tested more than once
In short: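 Compound titrations are first mixed with recombinant human IL-17A for 1 h at room temperature. The mixture goes onto adult normal human keratinocytes (final IL-17A 5 ng/mL, 5% FBS, 0.2% DMSO) for 24 h at 37 °C. Secreted G-CSF is then measured by HTRF and IC50 fitted.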

Chain of UniProt Q16552 (Q16552 with tags, fused parts or gaps K93Q): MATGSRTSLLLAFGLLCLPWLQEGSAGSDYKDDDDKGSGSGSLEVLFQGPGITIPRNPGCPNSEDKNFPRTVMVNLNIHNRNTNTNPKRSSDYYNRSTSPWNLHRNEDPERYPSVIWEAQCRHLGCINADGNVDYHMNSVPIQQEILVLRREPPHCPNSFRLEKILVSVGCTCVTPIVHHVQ

| pIC50 [1] | Structure (SMILES) | pIC50 [2] |
| --- | --- | --- |
| 7.00 to 7.30 | [2H]C1([2H])[C@H](C(F)(F)F)NC(=O)N1[C@@H](c1ccc2[nH]c([C@@H](NC(=O)c3nonc3C)[C@@H](C)O[C@H](C)C(F)(F)F)nc2c1)C1CC1 (relative stereo) [Example 8, N-((1R*,2R)-1-(5-((R)-Cyclopropyl((R*)-2-oxo-4-(trifluoromethyl)imidazolidin-1-yl-5,5-d2)methyl)-1H-benzo[d]imidazol-2-yl)-2-(((R)-1,1,1-trifluoropropan-2-yl)oxy)propyl)-4-methyl-1,2,5-oxadiazole-3-carboxamide] | < 7.00 |
| > 7.30 | COC[C@H](c1ccc2[nH]c(C(NC(=O)c3nonc3C)[C@@H](C)O[C@H](C)C(F)(F)F)nc2n1)N1CC(F)(F)CNC1=O (single isomer, unassigned) [Example 21, N-((1R*,2R)-1-(5-((S)-1-(5,5-Difluoro-2-oxotetrahydropyrimidin-1(2H)-yl)-2-methoxyethyl)-1H-imidazo[4,5-b]pyridin-2-yl)-2-(((R)-1,1,1-trifluoropropan-2-yl)oxy)propyl)-4-methyl-1,2,5-oxadiazole-3-carboxamide] | > 7.30 |
| > 7.30 | [2H]C1([2H])[C@@H](C(F)(F)F)NC(=O)N1[C@H](COC)c1ccc2[nH]c([C@H](COC(C)(C)C(F)(F)F)NC(=O)c3nonc3C)nc2c1 (relative stereo) [Example 55, N—((R*)-1-(5-((S)-2-methoxy-1-((S*)-2-oxo-4-(trifluoromethyl)imidazolidin-1-yl-5,5-d2)ethyl)-1H-benzo[d]imidazol-2-yl)-2-((1,1,1-trifluoro-2-methylpropan-2-yl)oxy)ethyl)-4-methyl-1,2,5-oxadiazole-3-carboxamide] | > 7.30 |
| > 7.30 | [2H]C([2H])([2H])C([2H])([2H])n1nccc1C(=O)N[C@@H](COC(C)(C)C(F)(F)F)c1nc2cc([C@@H](C3CC3)N3C[C@@H](C(F)(F)F)NC3=O)ccc2[nH]1 [Example 4, N—((R)-1-(5-((R)-Cyclopropyl((S)-2-oxo-4-(trifluoromethyl)imidazolidin-1-yl)methyl)-1H-benzo[d]imidazol-2-yl)-2-((1,1,1-trifluoro-2-methylpropan-2-yl)oxy)ethyl)-1-(ethyl-d5)-1H-pyrazole-5-carboxamide] | > 7.30 |
| > 7.30 | Cc1nonc1C(=O)NC(COC(C)(C)C(F)(F)F)c1nc2cc([C@@H](COC3CC3)N3C[C@@H](C(F)(F)F)NC3=O)ccc2[nH]1 (single isomer, unassigned) [Example 41, N—((R*)-1-(5-((S)-2-cyclopropoxy-1-((S)-2-oxo-4-(trifluoromethyl)imidazolidin-1-yl)ethyl)-1H-benzo[d]imidazol-2-yl)-2-((1,1,1-trifluoro-2-methylpropan-2-yl)oxy)ethyl)-4-methyl-1,2,5-oxadiazole-3-carboxamide] | > 7.30 |
| > 7.30 | Cc1nonc1C(=O)N[C@@H](COC(C)(C)C(F)(F)F)c1nc2cc([C@@H](C3CC3)N3C[C@@H](C(F)(F)F)NC3=O)ccc2[nH]1 [Example 2, N—((R)-1-(5-((R)-Cyclopropyl((S)-2-oxo-4-(trifluoromethyl)imidazolidin-1-yl)methyl)-1H-benzo[d]imidazol-2-yl)-2-((1,1,1-trifluoro-2-methylpropan-2-yl)oxy)ethyl)-4-methyl-1,2,5-oxadiazole-3-carboxamide] | > 7.30 |
| > 7.30 | CC(C)n1nccc1C(=O)N[C@@H](COC(C)(C)C(F)(F)F)c1nc2cc([C@@H](C3CC3)N3CC(F)(F)CNC3=O)ccc2[nH]1 [Example 24, N—((R)-1-(5-((R)-Cyclopropyl(5,5-difluoro-2-oxotetrahydropyrimidin-1(2H)-yl)methyl)-1H-benzo[d]imidazol-2-yl)-2-((1,1,1-trifluoro-2-methylpropan-2-yl)oxy)ethyl)-1-isopropyl-1H-pyrazole-5-carboxamide] | > 7.30 |
| > 7.30 | [2H]C1([2H])[C@H](C(F)(F)F)NC(=O)N1[C@@H](c1ccc2[nH]c([C@H](CC(C)(C)C(F)(F)F)NC(=O)c3nonc3C)nc2c1)C1CC1 (relative stereo) [Example 53, N—((S)-1-(5-((R)-Cyclopropyl((S*)-2-oxo-4-(trifluoromethyl)imidazolidin-1-yl-5,5-d2)methyl)-1H-benzo[d]imidazol-2-yl)-4,4,4-trifluoro-3,3-dimethylbutyl)-4-methyl-1,2,5-oxadiazole-3-carboxamide] | > 7.30 |
| > 7.30 | Cc1nonc1C(=O)N[C@@H](COC(C)(C)C(F)(F)F)c1nc2cc(CN3C[C@](C)(C(F)(F)F)NC3=O)ccc2[nH]1 (relative stereo) [Example 57, 4-Methyl-N—((R*)-1-(5-(((R*)-4-methyl-2-oxo-4-(trifluoromethyl)imidazolidin-1-yl)methyl)-1H-benzo[d]imidazol-2-yl)-2-((1,1,1-trifluoro-2-methylpropan-2-yl)oxy)ethyl)-1,2,5-oxadiazole-3-carboxamide] | < 7.00 |
| > 7.30 | CC(C)(OC[C@H](NC(=O)c1nonc1C1CC1)c1nc2cc(CN3C[C@@](C)(C(F)(F)F)NC3=O)ccc2[nH]1)C(F)(F)F (relative stereo) [Example 61, 4-Cyclopropyl-N—((R*)-1-(5-(((S*)-4-methyl-2-oxo-4-(trifluoromethyl)imidazolidin-1-yl)methyl)-1H-benzo[d]imidazol-2-yl)-2-((1,1,1-trifluoro-2-methylpropan-2-yl)oxy)ethyl)-1,2,5-oxadiazole-3-carboxamide] | > 7.30 |
| > 7.30 | [2H]C1([2H])[C@@H](C(F)(F)F)NC(=O)N1[C@@H](c1ccc2[nH]c([C@@H](NC(=O)c3nonc3C)[C@@H](C)O[C@H](C)C(F)(F)F)nc2c1)C1CC1 (relative stereo) [Example 9, N-((1R*,2R)-1-(5-((R)-Cyclopropyl((S*)-2-oxo-4-(trifluoromethyl)imidazolidin-1-yl-5,5-d2)methyl)-1H-benzo[d]imidazol-2-yl)-2-(((R)-1,1,1-trifluoropropan-2-yl)oxy)propyl)-4-methyl-1,2,5-oxadiazole-3-carboxamide] | > 7.30 |
| > 7.30 | COC[C@H](c1ccc2[nH]c(C(COC(C)(C)C(F)(F)F)NC(=O)c3nonc3C3CC3)nc2c1)N1CC(F)(F)CNC1=O (single isomer, unassigned) [Example 35, 4-Cyclopropyl-N—((R*)-1-(5-((S)-1-(5,5-difluoro-2-oxotetrahydropyrimidin-1(2H)-yl)-2-methoxyethyl)-1H-benzo[d]imidazol-2-yl)-2-((1,1,1-trifluoro-2-methylpropan-2-yl)oxy)ethyl)-1,2,5-oxadiazole-3-carboxamide] | > 7.30 |
| > 7.30 | C[C@@H](O[C@H](C)C(F)(F)F)C(NC(=O)c1nonc1C1CC1)c1nc2nc([C@@H](C3CC3)N3CC(F)(F)CNC3=O)ccc2[nH]1 (single isomer, unassigned) [Example 20, 4-Cyclopropyl-N-((1R*,2R)-1-(5-((R)-cyclopropyl(5,5-difluoro-2-oxotetrahydropyrimidin-1(2H)-yl)methyl)-1H-imidazo[4,5-b]pyridin-2-yl)-2-(((R)-1,1,1-trifluoropropan-2-yl)oxy)propyl)-1,2,5-oxadiazole-3-carboxamide] | > 7.30 |
| > 7.30 | COCC(c1ccc2[nH]c([C@H](COC(C)(C)C(F)(F)F)NC(=O)c3nonc3C)nc2c1)N1CC(C)(C)NC1=O (single isomer, unassigned) [Example 48, N—((R)-1-(5-((R*)-1-(4,4-Dimethyl-2-oxoimidazolidin-1-yl)-2-methoxyethyl)-1H-benzo[d]imidazol-2-yl)-2-((1,1,1-trifluoro-2-methylpropan-2-yl)oxy)ethyl)-4-methyl-1,2,5-oxadiazole-3-carboxamide] | > 7.30 |
| > 7.30 | CC(C)n1ncc(F)c1C(=O)N[C@@H](COC(C)(C)C(F)(F)F)c1nc2cc([C@@H](C3CC3)N3C[C@@H](C(F)(F)F)NC3=O)ccc2[nH]1 [Example 3, N—((R)-1-(5-((R)-Cyclopropyl((S)-2-oxo-4-(trifluoromethyl)imidazolidin-1-yl)methyl)-1H-benzo[d]imidazol-2-yl)-2-((1,1,1-trifluoro-2-methylpropan-2-yl)oxy)ethyl)-4-fluoro-1-isopropyl-1H-pyrazole-5-carboxamide] | > 7.30 |
